Reference: patent US6620828B2, “Thiazole compounds and pharmaceutical compositions for inhibiting protein kinases and methods for their use” (Agouron Pharmaceuticals, Inc., priority 1999, dated 2003)
Where “and” joins values, the source holds several entries; their conditions need not be identical. Identical values can stand only once.

How the values were obtained:
[1] = tested on: lung cancer cells (line MV522); assay: Cancer cell proliferation (MV522) assay; assay type: cell-based; conditions: MV522, Table 1
Description: Cancer Cell Proliferation (MV522) Assay
The protocol for assessing cellular proliferation in cancer cells is similar to that used for assessments in HUVEC cells. Two thousand lung cancer cells (line MV522, acquired from American Tissue Cultural Collection) were seeded in growth media (RPMI1640 medium supplemented with 2 mM glutamine and 10% FBS). Cells are allowed to attach for 1 day prior to addition of test agents and/or vehicles. Cells are treated simultaneously with the same test agents used in the HUVEC assay. Cellular proliferation is quantified by MTT dye reduction assay 72 hours after exposure to test agents. The total length of the assay is 4 days vs. 5 for HUVEC cells because MV522 cells are not exposed to starvation medium.

[2] = target: T1, phosphorylated VEGF-R2Δ50 (FLVK-P) (Homo sapiens, UniProt P35968, DEL940-989/E990V); assay: VEGF-R2 coupled spectrophotometric (FLVK-P) assay; assay type: biochemical; conditions: Table 1; for Ki: spectrophotometric assay
T1 construct: VEGF-R2Δ50 contains residues 806-939 and 990-1171; made in house; host or cells: baculovirus/insect cells
How it was run: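 Baculovirus-expressed human VEGF-R2Δ50 (residues 806-939/990-1171, E990V) was autophosphorylated with 3 mM ATP, 40 mM MgCl2 for 2 h at 4° C. ADP formation was coupled via PK/LDH to NADH oxidation, read at 340 nm, with 5.1 mM poly(E4Y1), 1 mM ATP, 25 mM MgCl2, Hepes pH 7.5. Ki came from activity across compound concentrations.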

[3] = tested on: human umbilical vein endothelial cells (HUVEC); assay: HUVEC proliferation assay; assay type: cell-based; conditions: Homo sapiens, HUVEC, Table 1
How it was run: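 Exponentially growing HUVEC were serum-starved 24 h (F12K + 1% FBS), pre-treated 1 h with compound (0.1% DMSO final), then stimulated with 6 ng/ml VEGF. Proliferation was read 72 h later by MTT reduction (A595). IC50 came from seven 0.5-log concentrations in triplicate; screens gave % inhibition relative to VEGF-only and starved wells.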

[4] = target: T2, unphosphorylated VEGF-R2Δ50 (FLVK) (Homo sapiens, UniProt P35968, DEL940-989/E990V); assay: VEGF-R2 coupled spectrophotometric assay, unphosphorylated enzyme (FLVK); assay type: biochemical; conditions: Table 1
T2 construct: VEGF-R2Δ50 contains residues 806-939 and 990-1171; made in house; host or cells: baculovirus/insect cells
How it was run: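 Unphosphorylated VEGF-R2Δ50 (5 to 40 nM) with 20 mM poly(E4Y1), 3 mM ATP, 60 mM MgCl2, 2 mM MnCl2 in 200 mM Hepes pH 7.5. ADP production coupled via PK/LDH to NADH oxidation, read at 340 nm. Ki from activity at varying compound concentrations.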

CHK1 = target: T3, CHK1 (Homo sapiens, UniProt O14757); assay: CHK1 high-throughput screening; assay type: biochemical; conditions: for inhibition at 20 µM: read-out: % inhibition @ 20 μM, Table 4, repeated entries per example; for % inhibition @ 20 μM: Table 4, repeated entries per example
T3 sequence (O14757 1-476): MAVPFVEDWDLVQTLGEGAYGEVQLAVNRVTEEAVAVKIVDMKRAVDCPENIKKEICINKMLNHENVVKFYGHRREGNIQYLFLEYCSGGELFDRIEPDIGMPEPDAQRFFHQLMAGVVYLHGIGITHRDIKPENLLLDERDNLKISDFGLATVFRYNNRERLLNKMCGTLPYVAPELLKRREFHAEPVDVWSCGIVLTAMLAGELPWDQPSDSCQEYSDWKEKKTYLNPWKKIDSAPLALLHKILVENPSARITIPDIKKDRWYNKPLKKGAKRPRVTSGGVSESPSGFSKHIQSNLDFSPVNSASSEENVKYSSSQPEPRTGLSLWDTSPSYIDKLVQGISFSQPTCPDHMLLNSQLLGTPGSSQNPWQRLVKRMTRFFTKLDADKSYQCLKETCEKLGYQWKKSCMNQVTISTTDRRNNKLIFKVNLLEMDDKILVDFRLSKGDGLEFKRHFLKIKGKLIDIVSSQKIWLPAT

CDK4/Cyclin D3 complex = target: T4, CDK4/Cyclin D3 complex (Homo sapiens, UniProt P11802); assay: CDK4/Cyclin D assay; assay type: biochemical; conditions: Table 2
T4 construct: made in house; host or cells: insect cells co-infected with baculovirus vectors
How it was run: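 Insect-cell-expressed CDK4/cyclin D3 (50 nM) phosphorylating His-tagged Rb fragment (residues 386-928) with 25 μM [^32P]ATP in HEPES pH 7.4, MgCl2, 2% DMSO; 20 min at 30 °C, EDTA stop. Filter-captured 32P by phosphorimager; apparent Ki from competitive or tight-binding inhibition fits.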

CDK2/Cyclin A complex = CDK2/Cyclin A complex (Homo sapiens, UniProt P24941); assay: CDK2/Cyclin A assay; assay type: biochemical; conditions: Table 2
How it was run: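 Radiometric assay: 150 nM CDK2/cyclin A (insect-cell CDK2, truncated cyclin A) phosphorylates His-tagged Rb fragment (residues 386-928) with 25 μM ATP plus [32P]ATP, pH 7.4 HEPES, 2% DMSO, 30 °C for 20 min. Filter-captured product counted by phosphorimager; apparent Ki from competitive or tight-binding inhibition fits.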

T2 sequence (P35968 with tags, fused parts or gaps DEL940-989/E990V limits assumed): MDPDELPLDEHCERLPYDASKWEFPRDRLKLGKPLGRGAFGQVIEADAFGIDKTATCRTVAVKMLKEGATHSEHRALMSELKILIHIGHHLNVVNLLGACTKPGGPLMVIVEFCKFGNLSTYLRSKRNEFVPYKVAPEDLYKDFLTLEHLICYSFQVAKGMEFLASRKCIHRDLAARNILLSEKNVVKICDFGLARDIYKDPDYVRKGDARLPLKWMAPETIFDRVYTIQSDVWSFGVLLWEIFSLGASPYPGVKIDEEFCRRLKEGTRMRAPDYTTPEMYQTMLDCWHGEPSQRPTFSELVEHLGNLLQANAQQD
T1 sequence (P35968 with tags, fused parts or gaps DEL940-989/E990V limits assumed): as above
T4 sequence (P11802 whole entry): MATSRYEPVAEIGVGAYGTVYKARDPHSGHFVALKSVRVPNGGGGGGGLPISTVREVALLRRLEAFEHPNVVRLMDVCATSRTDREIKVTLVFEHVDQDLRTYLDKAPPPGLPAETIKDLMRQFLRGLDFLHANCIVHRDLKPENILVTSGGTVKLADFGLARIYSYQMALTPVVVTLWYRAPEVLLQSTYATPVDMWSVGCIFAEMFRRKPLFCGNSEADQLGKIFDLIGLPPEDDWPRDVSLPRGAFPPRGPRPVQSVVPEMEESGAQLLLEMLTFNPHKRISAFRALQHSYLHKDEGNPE
T4 sequence (P30281 whole entry partner): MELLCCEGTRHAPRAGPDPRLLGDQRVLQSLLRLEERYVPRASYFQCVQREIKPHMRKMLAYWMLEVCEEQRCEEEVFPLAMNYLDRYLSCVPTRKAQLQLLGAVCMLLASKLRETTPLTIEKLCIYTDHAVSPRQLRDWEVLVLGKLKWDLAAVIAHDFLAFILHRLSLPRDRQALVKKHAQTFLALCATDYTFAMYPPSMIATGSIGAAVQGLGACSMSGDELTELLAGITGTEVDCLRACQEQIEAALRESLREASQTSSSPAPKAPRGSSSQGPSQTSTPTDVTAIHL

Row | Compound | IC50 [1] | Ki [2] | IC50 [3] | Ki [4] | inhibition at 20 µM (CHK1) | also measured
1 | COc1cc(Nc2nc(N)c(-c3nc(-c4cccc(NC(=O)c5sc(C)nc5C)c4)cs3)s2)cc(OC)c1OC [D(33), 2,4-Dimethyl-thiazole-5-carboxylic acid {3-[4′-amino-2′-(3,4,5-trimethoxy-phenylamino)-[2,5′]bithiazolyl-4-yl]-phenyl}-amide] | > 10000 nM | 3.8 nM | 120 nM | 3.6 nM |  | 
2 | Cc1cc(C)cc(Nc2nc(N)c(-c3nc(-c4cccc(NC(=O)c5ccccc5)c4)cs3)s2)c1 [A(42), N-{3-[4′-Amino-2′-(3,5-dimethylphenylamino)-[2,5′]bithiazolyl-4-yl]-phenyl}-benzamide] |  | 7.3 nM |  |  | -0.1% | 
3 | COc1cc(Nc2nc(N)c(-c3nc(-c4cccc(NC(=O)OCc5ccccc5)c4)no3)s2)cc(OC)c1OC [D(44), 3-[3-Benzyloxycarboxy-aminophenyl]-5-[2-[(3,4,5-trimethoxyphenyl)amino]-4-amino-5-thiazolyl]-1,2,4-oxadiazole] | > 10000 nM | 5.4 nM | 373 nM | 2.1 nM |  | 
4 | COc1cc(Nc2nc(N)c(-c3nc(-c4cccc(NC(=O)c5cccc(C)c5)c4)no3)s2)cc(OC)c1OC [D(47), 3-[3-(3-Methylbenzamido)phenyl]-5-[2-[(3,4,5-trimethoxyphenyl)amino]-4-amino-5-thiazolyl]-1,2,4-oxadiazole] | > 10000 nM | 1.1 nM | 13 nM | 0.34 nM |  | 
5 | Nc1nc(Nc2ccc([N+](=O)[O-])cc2)sc1-c1nc(-c2cccc(NC(=O)c3ccccc3)c2)cs1 [A(56), 4-(4′-Amino-4-(3-benzamidophenyl)-[2,5′]bithiazolyl-2′-ylamino)-nitrophenyl] |  | 84 nM |  |  | -2.9% | 
6 | COc1cc(Nc2nc(N)c(-c3nc(-c4cccc(NC(=O)c5cccc(Cl)c5)c4)cs3)s2)cc(OC)c1OC [D(40), N-{3-[4′-Amino-2′-(3,4,5-trimethoxy-phenylamino)-[2,5′]bithiazolyl-4-yl]-phenyl}-3-chloro-benzamide] | > 10000 nM | 1.1 nM | 39 nM | 1.4 nM |  | 
7 | COc1ccc(Nc2nc(N)c(-c3nc(-c4cccc(NC(=O)c5ccccc5)c4)cs3)s2)cc1 [A(52), 4-(4′-Amino-4-(3-benzamidophenyl)-[2,5′]bithiazolyl-2′-ylamino)-methoxyphenyl] |  |  |  |  | 2% | 
8 | CC(=O)c1ccc(Nc2nc(N)c(-c3nc(-c4cccc(NC(=O)c5ccccc5)c4)cs3)s2)cc1 [A(58), 4-(4′-Amino-4-(3-benzamidophenyl)-[2,5′]bithiazolyl-2′-ylamino)-acetophenone] |  |  |  |  | -7.2% | 
9 | Nc1nc(Nc2ccc(S(N)(=O)=O)cc2)sc1-c1nc(-c2ccc(-c3ccccc3)cc2)cs1 [A(70), 4-(4′-Amino-4-biphenyl-4-yl-[2,5′]bithiazolyl-2′-ylamino)-benzenesulfonamide] |  |  |  |  | 3.8% | inhibition at 100 µM (CDK4/Cyclin D3 complex; at 100 (printed 100 or 100 μM)): < 0%
10 | COc1cc(Nc2nc(N)c(-c3nc(-c4cccc(C(=O)NCCc5ccccc5)c4)cs3)s2)cc(OC)c1OC [A(31), 3-[4′-Amino-2′-(3,4,5-trimethoxy-phenylamino)-[2,5′]bithiazolyl-4-yl]-N-phenethyl-benzamide] |  |  |  |  | 2.5% | 
11 | CSc1cccc(Nc2nc(N)c(-c3nc(-c4cccc(NC(=O)c5ccccc5)c4)cs3)s2)c1 [A(46), N-{3-[4′-Amino-2′-(3-methylsulfanyl-phenylamino)-[2,5′]bithiazolyl-4-yl]-phenyl}-benzamide] |  |  |  |  | 0.9% | 
12 | Nc1nc(Nc2ccc3c(c2)OCO3)sc1-c1nc(-c2cccc(NC(=O)c3ccccc3)c2)cs1 [A(41), N-{3-[4′-Amino-2′-(benzo[1,3]dioxol-5-ylamino)-[2,5′]bithiazolyl-4-yl]-phenyl}-benzamide] |  |  |  |  | 3.8% | 
13 | Nc1nc(Nc2ccc(S(=O)(=O)N3CCCCC3)cc2)sc1-c1nc(-c2cccc(NC(=O)c3ccccc3)c2)cs1 [A(55), 4-(4′-Amino-4-(3-benzamidophenyl)-[2,5′]bithiazolyl-2′-ylamino)-phenylsulfonylpiperidine] |  |  |  |  | 0.1% | 
14 | Nc1nc(Nc2ccc3c(c2)CCC3)sc1-c1nc(-c2cccc(NC(=O)c3ccccc3)c2)cs1 [A(43)] |  |  |  |  | -3% | 
15 | COc1cc(Nc2nc(N)c(-c3nc(-c4cccc(NC(=O)OCc5ccccc5)c4)cs3)s2)cc(OC)c1OC [D(12), {3-[4′-Amino-2′-(3,4,5-trimethoxy-phenylamino)-[2,5′]bithiazolyl-4-yl]-phenyl}-carbamic acid benzyl ester] | > 10000 nM | 2 nM | 160 nM | 2.6 nM |  | 
16 | Nc1nc(NCCc2ccccc2)sc1-c1nc(-c2cccc(NC(=O)c3ccccc3)c2)cs1 [A(38), N-[3-(4′-Amino-2′-phenethylamino-[2,5′]bithiazolyl-4-yl)-phenyl]-benzamide] |  |  |  |  | 9.1% | FLVK-P % inhibition @ 0.05 ([2]; at 0.05, concentration unit not printed (head nM)): 7% @; % inhibition @ 20 μM (CHK1): 9.8%
17 | COc1cc(Nc2nc(N)c(-c3nc(-c4cccc(NC(=O)c5ccccc5)c4)cs3)s2)cc(OC)c1OC [D(24), N-{3-[4′-Amino-2′-(3,4,5-trimethoxy-phenylamino)-[2,5′]bithiazolyl-4-yl]-phenyl}-benzamide] | > 10000 nM | 1.8 nM | 110 nM | 2 nM |  | 
18 | COc1cc(Nc2nc(N)c(-c3nc(-c4cccc(C(=O)NCc5ccccc5)c4)cs3)s2)cc(OC)c1OC [A(32), 3-[4′-Amino-2′-(3,4,5-trimethoxy-phenylamino)-[2,5′]bithiazolyl-4-yl]-N-benzyl-benzamide] |  |  |  |  | -3.8% | 
19 | COC(=O)c1cccc(Nc2nc(N)c(-c3nc(-c4cccc(NC(=O)c5ccccc5)c4)cs3)s2)c1 [A(39), 3-[4′-Amino-4-(3-benzoylaminophenyl)-[2,5′]bithiazolyl-2′-ylamino]-benzoic acid methyl ester] |  |  |  |  | 2.2% | 
20 | COc1cc(Nc2nc(N)c(-c3nc(-c4cccc(NC(=O)c5ncc(C)s5)c4)cs3)s2)cc(OC)c1OC [D(42), 5-Methyl-thiazole-2-carboxylic acid {3-[4′-amino-2′-(3,4,5-trimethoxy-phenylamino)-[2,5′]bithiazolyl-4-yl]-phenyl}-amide] | > 10000 nM | 0.34 nM | 53 nM | 0.77 nM |  | 
21 | CCN(CC)CCCNc1nc(N)c(-c2nc(-c3cccc(NC(=O)c4ccccc4)c3)cs2)s1 [A(37), N-{3-[4′-Amino-2′-(3-diethylamino-propylamino)-[2,5′]bithiazolyl-4-yl]-phenyl}-benzamide] |  |  |  |  | 16% | 
22 | Nc1nc(Nc2ccc(S(N)(=O)=O)cc2)sc1-c1nc(-c2ccc(Cl)c(O)c2)cs1 [A(69), 4-[4′-Amino-4-(4-chloro-3-hydroxy-phenyl)-[2,5′]bithiazolyl-2′-ylamino]-benzenesulfonamide] |  |  |  |  | 4.8% | Ki (CDK4/Cyclin D3 complex): 7200 nM; Ki (CDK2/Cyclin A complex): 4000 nM; % inhibition @ 20 μM (CHK1): 2.7% and 3.8%
